Test results from ChEMBL document CHEMBL3046561, “Feeding deterrents from Dictamnus dasycarpus Turcz against two stored-product insects” (J Agric Food Chem, 2002).

How the values were obtained:
Tribolium castaneum [1] = test: Antifeedant activity against adult of Tribolium castaneum (red flour beetle) assessed as relative consumption rate at 300 ppm after 3 days relative to control; assay type: functional
Tribolium castaneum [2] = test: Antifeedant activity against adult of Tribolium castaneum (red flour beetle) after 3 days; assay type: functional, organism-based
Tribolium castaneum [3] = test: Antifeedant activity against adult of Tribolium castaneum (red flour beetle) assessed as mortality at 3 ppm after 3 days relative to control; assay type: functional; conditions: 72 h
Tribolium castaneum [4] = test: Antifeedant activity against larvae of Tribolium castaneum (red flour beetle) assessed as efficiency of conversion of ingested food at 100 ppm after 3 days relative to control; assay type: functional, Instar larval stage
Sitophilus zeamais [5] = test: Antifeedant activity against adult of Sitophilus zeamais assessed as efficiency of conversion of ingested food at 3 ppm after 3 days relative to control; assay type: functional
Tribolium castaneum [6] = test: Antifeedant activity against larvae of Tribolium castaneum (red flour beetle) assessed as feeding deterrence index at 10 ppm after 3 days relative to control; assay type: functional
Sitophilus zeamais [7] = test: Antifeedant activity against adult of Sitophilus zeamais assessed as relative consumption rate at 30 ppm after 3 days relative to control; assay type: functional
Sitophilus zeamais [8] = test: Antifeedant activity against adult of Sitophilus zeamais assessed as relative consumption rate at 10 ppm after 3 days relative to control; assay type: functional
Tribolium castaneum [9] = test: Antifeedant activity against adult of Tribolium castaneum (red flour beetle) assessed as mortality at 30 ppm after 3 days relative to control; assay type: functional; conditions: 72 h
Sitophilus zeamais [10] = test: Antifeedant activity against adult of Sitophilus zeamais assessed as relative consumption rate at 3 ppm after 3 days relative to control; assay type: functional
Sitophilus zeamais [11] = test: Antifeedant activity against adult of Sitophilus zeamais assessed as efficiency of conversion of ingested food at 30 ppm after 3 days relative to control; assay type: functional
Sitophilus zeamais [12] = test: Antifeedant activity against adult of Sitophilus zeamais after 3 days; assay type: functional, organism-based
Tribolium castaneum [13] = test: Antifeedant activity against larvae of Tribolium castaneum (red flour beetle) assessed as feeding deterrence index at 100 ppm after 3 days relative to control; assay type: functional
Tribolium castaneum [14] = test: Antifeedant activity against larvae of Tribolium castaneum (red flour beetle) assessed as efficiency of conversion of ingested food at 3 ppm after 3 days relative to control; assay type: functional
Sitophilus zeamais [15] = test: Antifeedant activity against adult of Sitophilus zeamais assessed as efficiency of conversion of ingested food at 100 ppm after 3 days relative to control; assay type: functional
Tribolium castaneum [16] = test: Antifeedant activity against larvae of Tribolium castaneum (red flour beetle) assessed as relative growth rate at 3 ppm after 3 days relative to control; assay type: functional
Sitophilus zeamais [17] = test: Antifeedant activity against adult of Sitophilus zeamais assessed as efficiency of conversion of ingested food at 10 ppm after 3 days relative to control; assay type: functional
Tribolium castaneum [18] = test: Antifeedant activity against adult of Tribolium castaneum (red flour beetle) assessed as relative growth rate at 100 ppm after 3 days relative to control; assay type: functional
Tribolium castaneum [19] = test: Antifeedant activity against larvae of Tribolium castaneum (red flour beetle) assessed as relative consumption rate at 10 ppm after 3 days relative to control; assay type: functional
Sitophilus zeamais [20] = test: Antifeedant activity against adult of Sitophilus zeamais assessed as relative growth rate at 3 ppm after 3 days relative to control; assay type: functional
Sitophilus zeamais [21] = test: Antifeedant activity against adult of Sitophilus zeamais assessed as mortality at 10 ppm after 3 days relative to control; assay type: functional; conditions: 72 h
Tribolium castaneum [22] = test: Antifeedant activity against larvae of Tribolium castaneum (red flour beetle) assessed as relative growth rate at 30 ppm after 3 days relative to control; assay type: functional
Tribolium castaneum [23] = test: Antifeedant activity against larvae of Tribolium castaneum (red flour beetle) assessed as relative growth rate at 300 ppm after 3 days relative to control; assay type: functional
Tribolium castaneum [24] = test: Antifeedant activity against adult of Tribolium castaneum (red flour beetle) assessed as mortality at 10 ppm after 3 days relative to control; assay type: functional; conditions: 72 h
Tribolium castaneum [25] = test: Antifeedant activity against adult of Tribolium castaneum (red flour beetle) assessed as feeding deterrence index at 300 ppm after 3 days relative to control; assay type: functional
Tribolium castaneum [26] = test: Antifeedant activity against larvae of Tribolium castaneum (red flour beetle) assessed as relative growth rate at 100 ppm after 3 days relative to control; assay type: functional
Tribolium castaneum [27] = test: Antifeedant activity against adult of Tribolium castaneum (red flour beetle) assessed as feeding deterrence index at 30 ppm after 3 days relative to control; assay type: functional
Tribolium castaneum [28] = test: Antifeedant activity against larvae of Tribolium castaneum (red flour beetle) after 3 days; assay type: functional, organism-based
Tribolium castaneum [29] = test: Antifeedant activity against adult of Tribolium castaneum (red flour beetle) assessed as relative growth rate at 30 ppm after 3 days relative to control; assay type: functional
Tribolium castaneum [30] = test: Antifeedant activity against larvae of Tribolium castaneum (red flour beetle) assessed as efficiency of conversion of ingested food at 300 ppm after 3 days relative to control; conditions: Instar larval stage, 72 h

SMILES	Activity (Tribolium castaneum [1]) [µg/mg/day]	mortality at 3 ppm (Tribolium castaneum [3]) [%]	Activity (Tribolium castaneum [4]) [%]	Activity (Sitophilus zeamais [5]) [%]	FDI (Tribolium castaneum [6]) [%]	Activity (Sitophilus zeamais [7]) [µg/mg/day]	Activity (Sitophilus zeamais [8]) [µg/mg/day]	mortality at 30 ppm (Tribolium castaneum [9]) [%]	Activity (Sitophilus zeamais [10]) [µg/mg/day]	Activity (Sitophilus zeamais [11]) [%]	FDI (Tribolium castaneum [13]) [%]	Activity (Tribolium castaneum [14]) [%]	Activity (Sitophilus zeamais [15]) [%]	Activity (Tribolium castaneum [16]) [µg/mg/day]	Activity (Sitophilus zeamais [17]) [%]	Activity (Tribolium castaneum [18]) [µg/mg/day]	Activity (Tribolium castaneum [19]) [µg/mg/day]	Activity (Sitophilus zeamais [20]) [µg/mg/day]	mortality at 10 ppm (Sitophilus zeamais [21]) [%]	Activity (Tribolium castaneum [22]) [µg/mg/day]	also measured
CC1=C2C(=O)O[C@@H](c3ccoc3)[C@]2(C)CCC1 [FRAXINELLONE]	7.39	0	13.65	11.41	24.45	113.45	120.27	0	133.85	9.57	72.76	22.62	9.66	52.62	11.25	9.41	198.13	15.22	0	23.22	EC50 (Tribolium castaneum [2]): 36.4 ppm; EC50 (Sitophilus zeamais [12]): 71.2 ppm; Activity (Tribolium castaneum [23]): -8.44 µg/mg/day; mortality at 10 ppm (Tribolium castaneum [24]): 0%; FDI (Tribolium castaneum [25]): 95.05%; Activity (Tribolium castaneum [26]): 11.71 µg/mg/day; FDI (Tribolium castaneum [27]): 40.07%; EC50 (Tribolium castaneum [28]): 29.1 ppm; Activity (Tribolium castaneum [29]): 19.84 µg/mg/day
COc1c2ccccc2nc2occc12 [DICTAMNINE]	22.21	0	17.43	9.1	21.77	86.75	110.95	0	126.78	9.78	64.42	19.8	9.73	52.88	10.42	13.49	213.17	15.71	0	31.75	mortality at 300 ppm (Tribolium castaneum [30]): 13.2%; Activity (Tribolium castaneum [23]): 7.08 µg/mg/day; mortality at 10 ppm (Tribolium castaneum [24]): 0%; FDI (Tribolium castaneum [25]): 81.24%; FDI (Tribolium castaneum [27]): 32.38%
